The target in data set [1] is T1, AADC (aromatic L-amino acid decarboxylase), recombinant (Homo sapiens, UniProt P20711, C100S).
T1 construct: gene DDC; recombinant AADC produced in vitro; native homodimer
T1 sequence (P20711 1-480 C100S): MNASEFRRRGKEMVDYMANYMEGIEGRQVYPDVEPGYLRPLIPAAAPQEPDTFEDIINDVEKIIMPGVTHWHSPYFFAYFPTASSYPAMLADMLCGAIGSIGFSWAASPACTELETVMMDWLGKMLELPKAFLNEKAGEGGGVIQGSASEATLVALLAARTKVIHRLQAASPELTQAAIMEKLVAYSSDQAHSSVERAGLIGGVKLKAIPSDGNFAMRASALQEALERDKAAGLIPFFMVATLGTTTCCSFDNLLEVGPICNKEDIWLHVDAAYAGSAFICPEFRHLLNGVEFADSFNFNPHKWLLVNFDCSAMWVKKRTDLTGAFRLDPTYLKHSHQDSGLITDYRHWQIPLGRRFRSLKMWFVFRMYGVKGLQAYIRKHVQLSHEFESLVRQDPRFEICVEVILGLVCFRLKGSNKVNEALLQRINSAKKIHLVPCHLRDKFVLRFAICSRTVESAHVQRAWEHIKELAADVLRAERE
Nature of the data set: PLP binding affinity of recombinant AADC (method in supplement). From the text:
PLP binding affinity of recombinant AADC (method in supplement) on AADC (aromatic L-amino acid decarboxylase), recombinant | with a KD(PLP) consistently lower than previously reported values for AADC variants

In data set [2] the target is T2, AADC (aromatic L-amino acid decarboxylase), recombinant (Homo sapiens, UniProt P20711).
T2 construct: gene DDC; recombinant AADC produced in vitro; native homodimer
T2 sequence (P20711 1-480): T1 sequence (P20711 1-480 C100S) with S100C
Nature of the data set: kinetic parameters of recombinant AADC (method in supplement). Format: biochemical. Particulars: wild-type reference of the C100S comparison; main text does not state whether measured here or taken from earlier work.

Substrate in data set [3]: N[C@@H](Cc1ccc(O)c(O)c1)C(=O)O
The description is as above. The class given is biochemical, Homo sapiens. From the text:
kinetic parameters of recombinant AADC (method in supplement) on AADC (aromatic L-amino acid decarboxylase), recombinant | attributed to a slight decrease in L-DOPA affinity (KM)

Changes are numbered by the printed parent chain. Numbers in names are those of the source.

By Kd is commonly meant the equilibrium constant for the complex coming apart. The Km is the concentration of substrate that gives half-maximal velocity. By kcat is commonly meant the maximal rate divided by the concentration of active sites.

Consider `Cc1ncc(COP(=O)(O)O)c(C=O)c1O` [PLP], for which the Kd in data set [1] came to 112 ± 14 nM.

For the molecule `N[C@@H](Cc1ccc(O)c(O)c1)C(=O)O` [L-DOPA], the KM entry in data set [2] is listed as “catalytic activity (kcat) of AADCC100S was indeed similar to that observed for wild-type”.

B1: AADC (aromatic L-amino acid decarboxylase), recombinant (Homo sapiens; C100S) (protein)
chain: T1 sequence (P20711 1-480 C100S)
notes: recombinant AADC produced in vitro; native homodimer
On to B1, for which, in data set [3], the Km stood at 420 ± 100 µM and the catalytic constant (kcat) worked out at 6.9 ± 0.6 s⁻¹.

The record behind these values is PMC8418346, “Aromatic L-amino acid decarboxylase deficiency: a patient-derived neuronal model for precision therapies” (Brain, 2021).
